“And” between values parts separate entries of the source, which are not always exact repeats. Equal values may be shown once.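 Interpolation was linear, between the two tested concentrations surrounding the appropriate level; five concentrations were tested over 48 hours in 96-well plates. GI50 marks 50% less growth. TGI: total growth inhibition.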
Tests used:
Assay in all cases: NCI anticancer screen, dose series, 48 h
[1] = system: HCT-15 colon
[2] = system: OVCAR-4 ovarian
[3] = system: IGROV1 ovarian
[4] = system: BT-549 breast
[5] = system: NCI-H23 lung
[6] = system: RPMI-8226 leukemia
[7] = system: SW-620 colon
[8] = system: SNB-19 CNS
[9] = system: SF-295 CNS
[10] = system: OVCAR-3 ovarian

SMILES	GI50 [1]	TGI [1]	GI50 [2]	TGI [2]	GI50 [3]	TGI [3]	GI50 [4]	TGI [4]	GI50 [5]	TGI [5]	GI50 [6]	TGI [6]	GI50 [7]	TGI [7]	GI50 [8]	TGI [8]	GI50 [9]	TGI [9]	GI50 [10]	TGI [10]
CCN(C(=O)N1CCN(c2cc3c(cc2F)c(=O)c(C(=O)O)cn3C2CC2)CC1)c1nc(-c2ccccc2)cs1	2.9 µM	> 100 µM	2.29 µM	25.9 µM	3.12 µM	> 100 µM	2.27 µM	7.91 µM	2.79 µM	29.5 µM	2.41 µM	8.75 µM	3.93 µM	> 100 µM	3.94 µM	> 100 µM	2.24 µM	8.51 µM	2.61 µM	9.83 µM
CC(=O)N[C@H](C)[C@@H](O)[C@@H](C)[C@@H]1OC(=O)/C=C/C=C(C)\C=C\[C@]2(C)C[C@@H](NS(C)(=O)=O)C=C[C@@H]2/C=C(C)/C=C/[C@H]1C	0.0359 µM and 0.0337 µM	> 43.5 µM	25.2 µM	> 43.5 µM	0.0185 µM and 0.014 µM	> 43.5 µM	0.00898 µM and 0.0242 µM	> 43.5 µM	0.0493 µM	> 43.5 µM	0.00766 µM and 0.0153 µM	> 43.5 µM	0.00821 µM and 0.0135 µM	> 43.5 µM	0.039 µM and 0.0228 µM	> 43.5 µM	0.00244 µM and 0.00435 µM			> 43.5 µM
O=C(COc1ccc(/C=C2\Oc3ccc4ccccc4c3C2=O)cc1)c1ccc([N+](=O)[O-])cc1	7.6 µM	20.4 µM	2.14 µM	8.87 µM	4.06 µM	34.1 µM	11.1 µM	26.4 µM	12.5 µM	29.4 µM	1.6 µM	5.11 µM	3.88 µM	14.1 µM	15.6 µM	35.6 µM	13.7 µM	36.4 µM	4.59 µM	17.4 µM
Oc1ccc(NC(=S)Nc2ccccc2)cc1	> 100 µM	> 100 µM	> 100 µM	> 100 µM	> 100 µM	> 100 µM	> 100 µM	> 100 µM	> 100 µM	> 100 µM	> 100 µM	> 100 µM	> 100 µM	> 100 µM	> 100 µM	> 100 µM	> 100 µM	> 100 µM	> 100 µM	> 100 µM
O=C(Nc1ccc(OS(=O)(=O)c2ccc(F)cc2)cc1)C12CC3CC(CC(C3)C1)C2	0.558 µM	> 100 µM	4.38 µM	37.7 µM	16.1 µM	> 62.5 µM	4.37 µM	75.8 µM	10.1 µM	> 100 µM	0.403 µM	> 100 µM	0.54 µM	> 100 µM	15.9 µM	74.4 µM	1.57 µM	29.1 µM	8.64 µM	46.3 µM
COc1ccc(C(=O)/C=C/c2sc(Cl)nc2Cl)cc1	0.416 µM	2.14 µM	7.28 µM	20.2 µM	0.368 µM	1.91 µM	0.332 µM	1.7 µM	0.973 µM	3.39 µM	1.36 µM	4.77 µM	0.613 µM	2.79 µM	1.99 µM	4.25 µM	3.07 µM	11.7 µM	1.84 µM	3.48 µM
C[C@@H](Nc1nc(N[C@H](C)C(F)(F)F)nc(-c2cccc(Cl)n2)n1)C(F)(F)F	> 100 µM	> 100 µM	23.3 µM	96.9 µM	52.5 µM	> 100 µM	37.9 µM	> 100 µM	54 µM	> 100 µM	> 100 µM	> 100 µM	> 100 µM	> 100 µM	23.3 µM	63.5 µM	35.2 µM	> 100 µM	31.5 µM	> 100 µM
COC(=O)c1cc(-c2ccc3ccccc3c2)[nH]c(=O)c1C#N		> 100 µM		> 100 µM		> 100 µM		> 100 µM		> 100 µM		> 100 µM		> 100 µM		> 100 µM		> 100 µM		> 100 µM
COc1cc2c(Oc3ccc(NC(=O)C4(C(=O)Nc5ccc(F)cc5)CC4)cc3F)ccnc2cc1OCCCN1CCOCC1	0.935 µM and 1.03 µM	3.8 µM and 4.04 µM	0.747 µM and 2.56 µM	13.2 µM and > 10 µM	1.31 µM and 0.645 µM	8.49 µM and 2.74 µM	1.82 µM and 2.78 µM	3.93 µM and > 9.51 µM	0.383 µM and 0.511 µM	2.41 µM and > 10 µM	2.02 µM and 1.68 µM	5.02 µM and 7.07 µM	0.346 µM and 0.311 µM	1.85 µM and 2.6 µM	1.99 µM and 2.14 µM	5.77 µM and > 10 µM	0.0519 µM and 0.0663 µM	1.26 µM and 1.49 µM	1.46 µM and 2.25 µM	3.36 µM and > 10 µM
COc1ccc(-n2cc(-c3cc(OC)c(OC)c(OC)c3)nc2SCc2ccc(Cl)cc2)cc1OC	30.5 µM	> 100 µM	71.9 µM	> 100 µM			> 100 µM	> 100 µM	> 100 µM	> 100 µM	> 100 µM	> 100 µM	> 100 µM	> 100 µM	> 100 µM	> 100 µM	> 100 µM	> 100 µM	> 100 µM	> 100 µM
Cc1cc(S(=O)(=O)/N=C(\N)Nc2cccc(O)c2)c(SCc2ccccc2)cc1Cl	18.6 µM	48 µM	12.1 µM	45.1 µM	17.5 µM	64.8 µM	19 µM	39.7 µM			5.81 µM	> 100 µM	29.3 µM	> 100 µM	20.6 µM	58.9 µM	16.7 µM	51.2 µM	10.3 µM	26.2 µM
C=C1CCC2CC1C(C(=O)c1c[nH]c3ccccc13)=NC2(C)C (stereo unspecified)		> 100 µM		> 100 µM		> 100 µM		> 100 µM		> 100 µM		> 100 µM		> 100 µM		> 100 µM				> 100 µM
Cc1c2cnccc2c(C)c2c1c1cc(O)ccc1n2C(C)C	0.44 µM	4.2 µM	1.31 µM	7.38 µM			1.11 µM	2.73 µM	0.721 µM	3.83 µM	1.05 µM	3.19 µM	0.408 µM	3.27 µM	1.76 µM	10.9 µM	1.7 µM	5.35 µM	2.04 µM	6.86 µM

From PubChem BioAssay (NCI)
